Like-named read-outs stand apart in the source and are kept apart here.
Key:
OCI-AML3 cells = assay: OCI-AML3 cell growth inhibition, dose-response viability assay (CellTiterGlo); assay type: cell-based; conditions: Homo sapiens, OCI-AML-3, 144 h, read-out: AML-3 EC50
Protocol: Cell dose-response viability assays. […] In the initial screen, compounds were added to seeded cells in serial dilutions (10 dilutions, 1:3, starting from […] 20 μM), in duplicates.
(§1) The potency of the compounds of Example 6 at inhibiting OCI-AML3 cell growth was tested using a procedure similar to that described for Mutritinib in Example 1. […] Murine MLL-AF9 leukemia cells (female cells) were generated by infection with VSV-G-pseudotyped MSCV MLL-AF9 IRES Puro (subcloned from a construct by Frédéric Barabé, Laval U, Quebec, QC, Canada).
(§2) Compounds were added to seeded cells in serial dilutions from 10 μM to 0.5 nM, in duplicates or quadruplicates.

MLL-AF9 cells = assay: MLL-AF9 leukemia cell growth inhibition, dose-response viability assay (CellTiterGlo); assay type: cell-based, murine; conditions: Mus musculus, read-out: MLL-AF9 EC50
Protocol: as §1, §2

Row | Structure (SMILES) | EC50 (OCI-AML3 cells) [nM] | EC50 (MLL-AF9 cells; MLL-AF9, 120 h) [nM] | EC50 (OCI-AML3 cells; OCI-AML3 cells, 6 days of culture, CellTiterGlo) [nM] | EC50 (MLL-AF9 cells; 120 h, MLL-AF9 cells, 5 days of culture, CellTiterGlo) [nM]
1 | O=C(CCCn1ccnn1)c1ccc(OCc2coc(/C=C/c3ccc([N+](=O)[O-])cc3F)n2)cc1 [Compound 24, (E)-1-(4-((2-(2-fluoro-4-nitrostyryl)oxazol-4-yl)methoxy)phenyl)-4-(1H-1,2,3-triazol-1-yl)butan-1-one] | 1000 to 10000 | 500 to 1000 | – | –
2 | O=[N+]([O-])c1ccc(/C=C/c2nc(COc3ccc(C(O)CCCn4ccnn4)cc3)co2)c(F)c1 (centres unmarked) [Compound 25, (E)-1-(4-((2-(2-fluoro-4-nitrostyryl)oxazol-4-yl)methoxy)phenyl)-4-(1H-1,2,3-triazol-1-yl)butan-1-ol] | 1000 to 10000 | 500 to 1000 | – | –
3 | FC(F)(F)c1ccc(/C=C/c2nc(CNc3ccc(CCCCn4ccnn4)cc3)co2)cc1 [Compound 26, (E)-4-(4-(1H-1,2,3-triazol-1-yl)butyl)-N-((2-(4-(trifluoromethyl)styryl)oxazol-4-yl)methyl)aniline] | 1000 to 10000 | 100 to 500 | – | –
4 | FC(F)(F)c1ccc(-c2nc(COc3ccc(CCCCn4ccnn4)cc3)co2)cc1 [Compound 28, 4-((4-(4-(1H-1,2,3-triazol-1-yl)butyl)phenoxy)methyl)-2-(4-(trifluoromethyl)phenyl)oxazole] | – | – | 1000 to 10000 | 100 to 500
5 | O=C(Nc1ccc(CCCCO)cc1)c1coc(/C=C/c2ccc(C(F)(F)F)cc2)n1 [Compound 29, (E)-N-(4-(4-hydroxybutyl)phenyl)-2-(4-(trifluoromethyl)styryl)oxazole-4-carboxamide] | 1000 to 10000 | 100 to 500 | – | –
6 | CN(C)c1cccc2c(S(=O)(=O)NCCc3cn(CCCCc4ccc(OCc5coc(/C=C/c6ccc(C(F)(F)F)cc6)n5)cc4)nn3)cccc12 [Compound 31, (E)-5-(dimethylamino)-N-(2-(1-(4-(4-((2-(4-(trifluoromethyl)styryl)oxazol-4-yl)methoxy)phenyl)butyl)-1H-1,2,3-triazol-4-yl)ethyl)naphthalene-1-sulfonamide] | 1000 to 10000 | 500 to 1000 | – | –
7 | CCN(CC)C(=O)OCCCCc1ccc(OCc2coc(/C=C/c3ccc(C(F)(F)F)cc3)n2)cc1 [Compound 34, (E)-4-(4-((2-(4-(trifluoromethyl)styryl)oxazol-4-yl)methoxy)phenyl)butyl diethylcarbamate] | 1000 to 10000 | 1000 to 10000 | – | –
8 | O=C(OCCCCc1ccc(OCc2coc(/C=C/c3ccc(C(F)(F)F)cc3)n2)cc1)N1CCOCC1 [Compound 35, (E)-4-(4-((2-(4-(trifluoromethyl)styryl)oxazol-4-yl)methoxy)phenyl)butyl morpholine-4-carboxylate] | 1000 to 10000 | 500 to 1000 | – | –
9 | CN(C)C(=O)OCCCCc1ccc(OCc2coc(/C=C/c3ccc(C(F)(F)F)cc3)n2)cc1 [Compound 36, (E)-4-(4-((2-(4-(trifluoromethyl)styryl)oxazol-4-yl)methoxy)phenyl)butyl dimethylcarbamate] | 1000 to 10000 | 1000 to 10000 | – | –
10 | O=[N+]([O-])c1cccc(/C=C/c2nc(COc3ccc(CCCCn4ccnn4)cc3)co2)c1 [Compound 43, (E)-4-((4-(4-(1H-1,2,3-triazol-1-yl)butyl)phenoxy)methyl)-2-(3-nitrostyryl)oxazole] | 1000 to 10000 | 1000 to 10000 | – | –
11 | FC(F)(F)c1ccccc1/C=C/c1nc(COc2ccc(CCCCn3ccnn3)cc2)co1 [Compound 44, (E)-4-((4-(4-(1H-1,2,3-triazol-1-YI)butyl)phenoxy)methyl)-2-(2-(trifluoromethyl)styryl)oxazole] | 1000 to 10000 | > 10000 | – | –
12 | Fc1cccc(F)c1/C=C/c1nc(COc2ccc(CCCCn3ccnn3)cc2)co1 [Compound 46, (E)-4-((4-(4-(1H-1,2,3-triazol-1-yl)butyl)phenoxy)methyl)-2-(2,6-difluorostyryl)oxazole] | 500 to 1000 | 1000 to 10000 | – | –

Other lines, results leading:

Row | EC50 (OCI-AML3 cells) [nM] | EC50 (MLL-AF9 cells; MLL-AF9, 120 h) [nM] | EC50 (OCI-AML3 cells; OCI-AML3 cells, 6 days of culture, CellTiterGlo) [nM] | EC50 (MLL-AF9 cells; 120 h, MLL-AF9 cells, 5 days of culture, CellTiterGlo) [nM] | Structure (SMILES)
13 | 100 to 500 | 50 to 100 | – | – | OC(CCCn1ccnn1)c1ccc(OCc2coc(/C=C/c3ccc(C(F)(F)F)cc3F)n2)cc1 (centres unmarked) [Compound 23, (E)-1-(4-((2-(2-fluoro-4-(trifluoromethyl)styryl)oxazol-4-yl)methoxy)phenyl)-4-(1H-1,2,3-triazol-1-yl)butan-1-ol]
14 | 500 to 1000 | 50 to 100 | – | – | Fc1cc(Br)ccc1/C=C/c1nc(CNc2ccc(CCCCn3ccnn3)cc2)co1 [Compound 27, (E)-4-(4-(1H-1,2,3-triazol-1-yl)butyl)-N-((2-(4-bromo-2-fluorostyryl)oxazol-4-yl)methyl)aniline]
15 | 500 to 1000 | 100 to 500 | – | – | O=C(Nc1ccc(CCCCn2ccnn2)cc1)c1coc(/C=C/c2ccc(C(F)(F)F)cc2)n1 [Compound 30, (E)-N-(4-(4-(1H-1,2,3-triazol-1-yl)butyl)phenyl)-2-(4-(trifluoromethyl)styryl)oxazole-4-carboxamide]
16 | 100 to 500 | 100 to 500 | – | – | COc1ccc(/C=C/c2nc(COc3ccc(CCCCn4ccnn4)cc3)co2)cc1 [Compound 32, (E)-4-((4-(4-(1H-1,2,3-triazol-1-yl)butyl)phenoxy)methyl)-2-(4-methoxystyryl)oxazole]
17 | 100 to 500 | 100 to 500 | – | – | Brc1ccc(/C=C/c2nc(COc3ccc(CCCCn4ccnn4)cc3)co2)cc1 [Compound 33, (E)-4-((4-(4-(1H-1,2,3-triazol-1-yl)butyl)phenoxy)methyl)-2-(4-bromostyryl)oxazole]
18 | 100 to 500 | 100 to 500 | – | – | N#Cc1ccc(/C=C/c2nc(COc3ccc(CCCCn4ccnn4)cc3)co2)cc1 [Compound 37, (E)-4-(2-(4-((4-(4-(1H-1,2,3-triazol-1-yl)butyl)phenoxy)methyl)oxazol-2-yl)vinyl)benzonitrile]
19 | 50 to 100 | 100 to 500 | – | – | Clc1ccc(/C=C/c2nc(COc3ccc(CCCCn4ccnn4)cc3)co2)cc1 [Compound 38, (E)-4-((4-(4-(1H-1,2,3-triazol-1-yl)butyl)phenoxy)methyl)-2-(4-chlorostyryl)oxazole]
20 | 100 to 500 | 100 to 500 | – | – | Fc1ccc(/C=C/c2nc(COc3ccc(CCCCn4ccnn4)cc3)co2)cc1 [Compound 39, (E)-4-((4-(4-(1H-1,2,3-triazol-1-yl)butyl)phenoxy)methyl)-2-(4-fluorostyryl)oxazole]
21 | 50 to 100 | 100 to 500 | – | – | O=[N+]([O-])c1ccc(/C=C/c2nc(COc3ccc(CCCCn4ccnn4)cc3)co2)cc1 [Compound 40, (E)-4-((4-(4-(1H-1,2,3-triazol-1-yl)butyl)phenoxy)methyl)-2-(4-nitrostyryl)oxazole]
22 | 100 to 500 | 100 to 500 | – | – | Fc1ccccc1/C=C/c1nc(COc2ccc(CCCCn3ccnn3)cc2)co1 [Compound 41, (E)-4-((4-(4-(1H-1,2,3-triazol-1-yl)butyl)phenoxy)methyl)-2-(2-fluorostyryl)oxazole]
23 | 500 to 1000 | 100 to 500 | – | – | O=[N+]([O-])c1ccccc1/C=C/c1nc(COc2ccc(CCCCn3ccnn3)cc2)co1 [Compound 42, (E)-4-((4-(4-(1H-1,2,3-triazol-1-yl)butyl)phenoxy)methyl)-2-(2-nitrostyryl)oxazole]
24 | 50 to 100 | 100 to 500 | – | – | Fc1ccc(/C=C/c2nc(COc3ccc(CCCCn4ccnn4)cc3)co2)c(F)c1 [Compound 45, (E)-4-((4-(4-(1H-1,2,3-triazol-1-yl)butyl)phenoxy)methyl)-2-(2,4-difluorostyryl)oxazole]
25 | 100 to 500 | 100 to 500 | – | – | C(=C\c1nc(COc2ccc(CCCCn3ccnn3)cc2)co1)/c1ccccc1 [Compound 47, (E)-4-((4-(4-(1H-1,2,3-triazol-1-yl)butyl)phenoxy)methyl)-2-styryloxazole]

Reference: patent publication US11760754B2, “Heterocyclic mitochondrial activity inhibitors and uses thereof” (UNIVERSITÉ DE MONTRÉAL, priority 2017, dated 2023)
